Assay results as given in ChEMBL document CHEMBL3727360, “Tetrahydroisoquinolines as selective nadph oxidase 2 inhibitors” (2014).
Calls of active or inactive are those of the source. No cut-off for these calls is given here.

Tests used:
[1] = molecular target: Xanthine dehydrogenase/oxidase (Bos taurus, UniProt P80457); test: Inhibition of bovine xanthine-oxidase assessed as H2O2 production at 25 to 50 uM by amplex red dye based fluorescence assay; settings: cattle
[2] = molecular target: T1, NADPH oxidase 4 (Homo sapiens, UniProt Q9NPH5); test: Inhibition of human Nox4 expressed in COS7 cells assessed as inhibition of PMA-induced H2O2 production by amplex red dye based fluorescence assay; format: cell-based; settings: cos-7
T1 sequence (Q9NPH5 whole entry): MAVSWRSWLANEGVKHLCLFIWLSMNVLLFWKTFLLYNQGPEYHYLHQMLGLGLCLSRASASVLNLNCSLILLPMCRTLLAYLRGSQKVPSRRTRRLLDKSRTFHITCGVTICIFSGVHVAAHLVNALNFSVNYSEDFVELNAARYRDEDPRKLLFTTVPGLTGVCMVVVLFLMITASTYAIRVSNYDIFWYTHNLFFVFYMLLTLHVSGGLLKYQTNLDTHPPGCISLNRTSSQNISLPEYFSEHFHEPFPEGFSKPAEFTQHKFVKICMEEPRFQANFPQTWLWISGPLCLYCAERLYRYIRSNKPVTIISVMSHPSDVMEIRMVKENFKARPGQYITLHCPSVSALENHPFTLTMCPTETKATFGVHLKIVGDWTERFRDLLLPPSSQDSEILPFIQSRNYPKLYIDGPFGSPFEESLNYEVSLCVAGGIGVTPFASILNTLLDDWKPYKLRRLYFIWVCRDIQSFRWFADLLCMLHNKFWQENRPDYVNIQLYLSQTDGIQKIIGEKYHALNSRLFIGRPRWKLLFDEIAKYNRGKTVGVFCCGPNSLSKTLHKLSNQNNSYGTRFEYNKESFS

[3] = molecular target: T2, NADPH oxidase 1 (Homo sapiens, UniProt Q9Y5S8); test: Inhibition of human Nox1 expressed in COS7 cells co-transfected with human NOXO1/NOXA1 assessed as inhibition of PMA-induced superoxide generation by L-012 chemiluminescence analysis; format: cell-based; settings: cos-7
T2 sequence (Q9Y5S8 whole entry): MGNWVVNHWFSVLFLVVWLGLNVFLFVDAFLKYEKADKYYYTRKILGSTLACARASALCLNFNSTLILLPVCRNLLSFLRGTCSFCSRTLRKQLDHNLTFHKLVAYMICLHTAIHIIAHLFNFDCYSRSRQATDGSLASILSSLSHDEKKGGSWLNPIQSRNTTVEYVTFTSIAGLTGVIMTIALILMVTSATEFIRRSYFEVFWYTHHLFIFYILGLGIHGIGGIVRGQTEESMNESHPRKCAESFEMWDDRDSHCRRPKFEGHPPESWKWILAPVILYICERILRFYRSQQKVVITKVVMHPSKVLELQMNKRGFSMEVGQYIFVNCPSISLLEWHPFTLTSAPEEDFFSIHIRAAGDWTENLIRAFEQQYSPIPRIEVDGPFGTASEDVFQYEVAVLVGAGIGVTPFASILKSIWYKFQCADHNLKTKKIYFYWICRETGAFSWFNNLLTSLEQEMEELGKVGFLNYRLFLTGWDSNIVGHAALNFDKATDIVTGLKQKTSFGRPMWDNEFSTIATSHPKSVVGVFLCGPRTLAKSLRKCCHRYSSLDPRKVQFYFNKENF

[4] = Cytotoxicity against african green monkey COS7 cells at high concentration for 15 mins by fluorescence analysis; format: cell-based; settings: chlorocebus aethiops, cos-7, 0.25 h
[5] = molecular target: T3, NADPH oxidase 2 (Homo sapiens) (UniProt P04839); test: Inhibition of human Nox2 expressed in COS7 cells co-transfected with human p22-phox,p47phox and p67-phox assessed as inhibition of LiDS-induced superoxide generation at 6.3 uM preincubated for 15 mins followed by addition of LiDS and NADPH; format: cell-based; settings: COS-7
T3 sequence (whole entry): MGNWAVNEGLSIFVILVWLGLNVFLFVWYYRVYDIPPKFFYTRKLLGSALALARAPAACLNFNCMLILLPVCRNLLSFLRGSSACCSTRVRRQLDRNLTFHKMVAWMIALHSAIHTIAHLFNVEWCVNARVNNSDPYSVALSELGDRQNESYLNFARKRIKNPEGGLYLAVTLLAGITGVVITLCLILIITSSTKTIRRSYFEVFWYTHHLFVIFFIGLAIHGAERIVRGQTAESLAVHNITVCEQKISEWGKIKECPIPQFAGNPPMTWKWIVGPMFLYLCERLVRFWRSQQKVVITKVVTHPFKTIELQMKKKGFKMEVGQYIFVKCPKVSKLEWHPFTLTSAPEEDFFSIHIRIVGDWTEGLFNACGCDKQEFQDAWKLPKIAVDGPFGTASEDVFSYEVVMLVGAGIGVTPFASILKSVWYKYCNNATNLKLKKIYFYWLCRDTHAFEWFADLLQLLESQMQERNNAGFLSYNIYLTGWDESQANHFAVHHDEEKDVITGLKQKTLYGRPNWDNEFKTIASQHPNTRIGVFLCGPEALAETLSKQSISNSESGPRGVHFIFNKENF

[6] = molecular target: T4, NADPH oxidase 2 (Homo sapiens, UniProt P04839); test: Inhibition of human Nox2 expressed in COS7 cells co-transfected with human p22-phox,p47phox and p67-phox assessed as inhibition of PMA-induced superoxide generation by L-012 chemiluminescence analysis; format: cell-based; settings: cos-7
T4 sequence (P04839 whole entry): T3 sequence (whole entry)

[7] = molecular target: T4, NADPH oxidase 2; test: Inhibition of human Nox2 expressed in COS7 cells co-transfected with human p22-phox,p47phox and p67-phox assessed as inhibition of PMA-induced H2O2 production by amplex red dye based fluorescence assay; format: cell-based; settings: cos-7
[8] = test system: Cardiac muscle cell; test: Inhibition of high-glucose-stimulated ROS production in rat cardiomyocyte at 25 uM; format: functional
[9] = test system: HPAEC; test: Inhibition of high-glucose-stimulated superoxide production in HPAEC cells at 25 uM measured after 24 hrs; format: functional, cell-based; settings: Homo sapiens
[10] = test system: HPAEC; test: Inhibition of angiotensin-2-stimulated superoxide production in HPAEC cells at 25 uM measured after 24 hrs; format: functional, cell-based; settings: Homo sapiens
[11] = molecular target: T5, NADPH oxidase 1 (Homo sapiens) (UniProt Q9Y5S8); test: Inhibition of human Nox1 expressed in COS7 cells co-transfected with human co-transfected with human NOXO1/NOXA1 assessed as inhibition of PMA-induced ROS production at 10 uM; format: cell-based; settings: COS-7
T5 sequence (whole entry): T2 sequence (Q9Y5S8 whole entry)

[12] = molecular target: T3, NADPH oxidase 2 (Homo sapiens); test: Inhibition of human Nox2 expressed in COS7 cells co-transfected with human p22-phox,p47phox and p67-phox assessed as inhibition of PMA-induced ROS production at 10 uM; format: cell-based; settings: COS-7
[13] = test system: Cardiac muscle cell; test: Inhibition of high-glucose-stimulated hypertrophy in rat cardiomyocyte at 25 uM; format: functional
[14] = test system: Fibroblast; test: Inhibition of PMA-induced ROS production in human fibroblast at 10 uM; format: functional, cell-based

Chain of Xanthine dehydrogenase/oxidase (P80457 whole entry): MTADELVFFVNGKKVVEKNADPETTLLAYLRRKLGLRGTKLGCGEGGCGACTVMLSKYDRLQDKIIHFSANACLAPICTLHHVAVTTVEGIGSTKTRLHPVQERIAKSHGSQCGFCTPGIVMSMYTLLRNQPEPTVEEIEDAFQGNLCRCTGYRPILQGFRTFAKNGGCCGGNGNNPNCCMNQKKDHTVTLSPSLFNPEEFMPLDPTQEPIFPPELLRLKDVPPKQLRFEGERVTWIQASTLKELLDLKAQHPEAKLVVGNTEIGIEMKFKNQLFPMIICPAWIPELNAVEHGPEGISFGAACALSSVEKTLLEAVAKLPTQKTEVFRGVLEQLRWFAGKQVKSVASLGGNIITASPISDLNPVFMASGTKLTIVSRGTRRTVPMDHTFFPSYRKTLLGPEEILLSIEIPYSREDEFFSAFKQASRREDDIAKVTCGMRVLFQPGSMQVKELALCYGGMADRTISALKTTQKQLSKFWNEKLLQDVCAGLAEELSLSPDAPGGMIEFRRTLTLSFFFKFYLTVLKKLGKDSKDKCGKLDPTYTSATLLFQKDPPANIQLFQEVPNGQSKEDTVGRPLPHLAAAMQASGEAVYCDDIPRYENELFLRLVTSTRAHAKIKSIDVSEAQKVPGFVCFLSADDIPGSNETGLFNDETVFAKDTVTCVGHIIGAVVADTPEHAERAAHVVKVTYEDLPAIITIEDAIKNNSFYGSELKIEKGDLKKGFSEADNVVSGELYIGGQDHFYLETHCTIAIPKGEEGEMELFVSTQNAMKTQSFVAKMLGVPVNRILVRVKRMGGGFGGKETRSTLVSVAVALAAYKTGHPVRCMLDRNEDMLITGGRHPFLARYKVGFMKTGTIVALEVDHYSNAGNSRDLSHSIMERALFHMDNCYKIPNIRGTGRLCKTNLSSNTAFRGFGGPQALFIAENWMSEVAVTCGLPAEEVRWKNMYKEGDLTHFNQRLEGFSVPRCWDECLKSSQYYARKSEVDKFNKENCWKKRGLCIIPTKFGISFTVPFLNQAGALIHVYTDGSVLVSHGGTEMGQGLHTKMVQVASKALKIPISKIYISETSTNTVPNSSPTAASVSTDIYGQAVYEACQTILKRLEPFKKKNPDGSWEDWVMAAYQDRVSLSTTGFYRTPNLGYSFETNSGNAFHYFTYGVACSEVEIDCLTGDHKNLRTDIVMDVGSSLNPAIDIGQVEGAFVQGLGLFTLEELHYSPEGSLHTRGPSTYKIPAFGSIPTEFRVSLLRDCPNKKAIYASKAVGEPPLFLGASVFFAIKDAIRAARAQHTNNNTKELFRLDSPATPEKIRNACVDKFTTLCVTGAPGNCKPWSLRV

Row | SMILES | inhibition (INH) [1] | IC50 [2] | further results
1 | C=C(C)CC1NC2CC(C)(C)C1c1c(-c3ccc(Cl)c(Cl)c3)cccc12 (racemic) | Not Active |  | 
2 | C=C(C)CC1C2c3c(Br)cccc3C(CC2(C)C)N1Cc1cccc(F)c1 (racemic) | Not Active |  | 
3 | C=C(C)CC1C2c3ccccc3C(CC2(C)C)N1Cc1cccc(F)c1 (racemic) | Not Active |  | 
4 | C=C(C)CC1NC2CC(C)(C)C1c1ccccc12 (racemic) | Not Active | Not Active | 
5 | C=C(C)CC1C2c3c(Br)cccc3C(CC2(C)C)N1Cc1c[nH]c2ccccc12 (racemic) | Not Active | Not Active | 
6 | C=C(C)CC1C2c3c(Br)cccc3C(CC2(C)C)N1S(C)(=O)=O (racemic) | Not Active |  | IC50 [3]: Not Active
7 | C=C(C)C[C@@H]1N[C@H]2CC(C)(C)[C@@H]1c1c(Br)ccc(Br)c12 | Not Active | Not Active | Activity [4]: Toxic
8 | CC(C)CC1NC2CC(C)(C)C1c1c(Br)cccc12 (racemic) | Not Active |  | Activity [4]: Toxic
9 | C=C(C)CC1C2c3c(Br)cccc3C(CC2(C)C)N1Cc1ccc2c(c1)OCO2 (racemic) | Not Active |  | 
10 | C=C(C)CC1C2c3c(-c4ccc(Cl)c(Cl)c4)cccc3C(CC2(C)C)N1Cc1ccc2c(c1)OCO2 (racemic) | Not Active | Not Active | 
11 | C=C(C)CC1C2c3c(-c4ccc(Cl)c(Cl)c4)cccc3C(CC2(C)C)N1CCCCC (racemic) | Not Active |  | 
12 | C=C(C)CC1NC2CC(C)(C)C1c1c(Br)cccc12 (racemic) | Not Active |  | inhibition [5]: Active; Activity [4]: Toxic
13 | C=C(C)CC1C2c3c(Br)cccc3C(CC2(C)C)N1Cc1cc(C)on1 (racemic) | Not Active |  | 
14 | C=C(C)C[C@@H]1N[C@H]2CC(C)(C)[C@@H]1c1c(-c3cccnc3)cccc12 (racemic) |  |  | IC50 [6]: Not Active; IC50 [7]: Not Active
15 | C=C(C)CC1C2c3c(Br)cccc3C(CC2(C)C)N1Cc1ccnc2ccccc12 (racemic) | Not Active | Not Active | 
16 | C=C(C)CC1C2c3c(Br)cccc3C(CC2(C)C)N1S(=O)(=O)c1ccc(F)cc1 (racemic) | Not Active | Not Active | 
17 | C=C(C)CC1C2c3c(Br)cccc3C(CC2(C)C)N1CCCCC (racemic) | Not Active |  | inhibition [8]: Active; inhibition [9]: Active; inhibition [10]: inactive; inhibition [11]: Active; inhibition [12]: Active; inhibition [13]: Active; inhibition [14]: Active
